Values quoted from earlier work, collected in US11549142B2, “CETP inhibitors for therapeutic use” (Hoffmann-La Roche Inc., priority 2013, dated 2023).

Legend:
[1] = target: T1, CETP (Oryctolagus cuniculus, UniProt P22687); details: rabbits; Shinkai et al., Kobayashi et al., Okamoto et al.; cited from earlier work
T1 construct: host or cells: rabbits (endogenous plasma CETP)
T1 sequence (P22687 2-497): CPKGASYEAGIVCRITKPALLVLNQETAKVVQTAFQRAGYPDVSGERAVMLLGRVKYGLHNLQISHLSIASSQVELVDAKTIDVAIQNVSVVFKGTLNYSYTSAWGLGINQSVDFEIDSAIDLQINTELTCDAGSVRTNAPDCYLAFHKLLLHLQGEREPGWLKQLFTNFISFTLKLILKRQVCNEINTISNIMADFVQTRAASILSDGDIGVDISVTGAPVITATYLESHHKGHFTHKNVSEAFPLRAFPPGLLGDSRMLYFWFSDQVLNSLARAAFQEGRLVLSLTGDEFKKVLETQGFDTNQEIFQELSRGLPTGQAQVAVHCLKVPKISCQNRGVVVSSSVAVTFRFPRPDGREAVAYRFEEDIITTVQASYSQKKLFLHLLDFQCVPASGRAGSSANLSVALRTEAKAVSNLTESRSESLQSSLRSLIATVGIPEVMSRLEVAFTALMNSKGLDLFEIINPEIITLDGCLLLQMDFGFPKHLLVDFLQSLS

[2] = target: T2, CETP (Homo sapiens, UniProt P11597); details: humans; de Grooth et al.; cited from earlier work
T2 construct: host or cells: humans treated with the compound (endogenous plasma CETP)
T2 sequence (P11597 18-493): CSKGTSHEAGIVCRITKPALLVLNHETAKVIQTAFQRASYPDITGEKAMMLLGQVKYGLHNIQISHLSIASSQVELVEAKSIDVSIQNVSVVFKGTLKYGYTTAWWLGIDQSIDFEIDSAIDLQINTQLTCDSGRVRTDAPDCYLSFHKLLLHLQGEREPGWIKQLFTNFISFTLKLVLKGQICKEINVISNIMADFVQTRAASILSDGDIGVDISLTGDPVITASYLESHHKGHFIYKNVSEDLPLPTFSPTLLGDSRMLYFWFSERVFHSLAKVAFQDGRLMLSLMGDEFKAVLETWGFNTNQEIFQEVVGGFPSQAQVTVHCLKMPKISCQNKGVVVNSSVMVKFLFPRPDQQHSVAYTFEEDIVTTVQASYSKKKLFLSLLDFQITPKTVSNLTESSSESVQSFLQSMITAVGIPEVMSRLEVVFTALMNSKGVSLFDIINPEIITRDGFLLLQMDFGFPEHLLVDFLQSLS

SMILES: CCC(CC)CC1(C(=O)Nc2ccccc2SC(=O)C(C)C)CCCCC1 [dalcetrapib, thioisobutyric acid S-(2-{[1-(2-ethyl-butyl)-cyclohexanecarbonyl]-amino}-phenyl) ester]
- CETP activity [1]: inhibitor of CETP activity
- CETP activity [2]: inhibitor of CETP activity
